Measured values taken from BindingDB's records for doi:10.1016/j.bmc.2009.08.047 (University of Padova, 2009).

Biological target: Casein kinase II subunit alpha (Rattus norvegicus, UniProt P19139)
Test: CK2 Phosphorylation Assay
Conditions: pH 7.5; 37 °C
Procedure: Inhibitory effect of test compound was assessed in reaction buffer containing purified CK2, synthetic peptide substrate, and [gamma-33P]ATP. Assays were stopped by addition of 0.5 M orthophosphoric acid before spotting aliquots onto phosphocellulose filters. Filters were washed in 75 mM phosphoric acid (5-10 mL/each) four times then once in methanol and dried before counting. Inhibition constants were determined from Lineweaver-Burk double-reciprocal plots of data obtained in experiments run at fixed concentration of peptide substrate and at increasing concentrations of ATP either in the absence or in the presence of variable concentrations of inhibitor. Alternatively inhibition constants were also deduced from the IC50/Ki Cheng-Prusoff relationship.

Chain of Casein kinase II subunit alpha (P19139 whole entry): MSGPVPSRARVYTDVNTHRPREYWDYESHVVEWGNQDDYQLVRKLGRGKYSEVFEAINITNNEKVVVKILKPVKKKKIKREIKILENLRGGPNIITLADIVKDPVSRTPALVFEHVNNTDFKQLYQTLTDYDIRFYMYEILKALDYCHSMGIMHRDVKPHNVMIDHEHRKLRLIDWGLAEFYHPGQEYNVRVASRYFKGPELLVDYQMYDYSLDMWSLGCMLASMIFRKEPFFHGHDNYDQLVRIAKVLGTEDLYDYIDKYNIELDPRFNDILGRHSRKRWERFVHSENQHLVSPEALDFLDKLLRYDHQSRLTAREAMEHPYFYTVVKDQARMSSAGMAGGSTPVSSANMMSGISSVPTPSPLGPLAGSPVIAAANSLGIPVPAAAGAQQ

Brc1c(I)c(I)c2[nH]cnc2c1I [iodinated benzimidazole, 3a]
Ki: 0.1 µM
